Series [1] deals with neuroblastoma cells (ScN2a). Conditions: mouse.
For series [2] the following is noted: human, in vivo, cited from earlier work.

Read-outs that look alike come from different tables or passages of the source.

Take `CCN(CC)CCCC(C)Nc1c2ccc(Cl)cc2nc2ccc(OC)cc12` (stereo not shown) [quinacrine]: in series [1], the “concentrations without cytotoxic effects on neuroblastoma cells” value was < 5 µM.
For `CSc1ccc2c(c1)N(CCC1CCCCN1C)c1ccccc1S2` (stereo not shown) [thioridazine], the figures for the brain concentration entry in series [2] (po) and in series [2] were “more than 80 μM” and 20 µM, respectively.
With `CN(C)CCCN1c2ccccc2Sc2ccc(Cl)cc21` [chlorpromazine], the “decrease in cell population (cytotoxic effects)” value in series [1] is recorded as 50%.

Values taken from US20050020582A1 (priority 2001, published 2005).
